“And” between values parts separate entries of the source, which are not always exact repeats. Identical values can stand only once. Counter-ions that a name gives are not always drawn. Like-named read-outs stand apart in the source and are kept apart here.
Tests used:
MYB mRNA = experiment: Splicing RT-qPCR assay, MYB canonical (CJ) and alternative (AJ) junction mRNA; format: cell-based, human; details: Homo sapiens; for AC50: read-out: MYB AJ (AC50, increase in alternative junction mRNA)
Summary of the method: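 Compound-induced exon inclusion is tracked as an increase in AJ transcript alongside the CJ transcript. Cells (A673 normalized to PPIA; K562 to GAPDH or GUSB) are dosed 24 h with a serial dilution topping at 10 uM, ≤0.25% DMSO, then lysed and analysed by RT-qPCR in at least duplicate.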

K562 cells = experiment: Cell Titer Glo 2.0 cell viability assay, K562; format: cell-based; details: Homo sapiens, 72 hours incubation
Description: Compounds described herein were screened for toxicity in K562 (human chronic myelogenous leukemia) and SH-SY5Y (human neuroblastoma) cells using a Cell Titer Glo 2.0 assay.
• Promega CellTiter-Glo® 2.0 Cell Viability Assay (cat #G9241) • Corning 384-well TC-treated microplates (cat #3570)
Cells were plated at 500 cells/well (K562 cells) in 45 μL of IMDM supplemented with 10% FBS in a 384-well opaque plate. Wells containing only medium were used as a blank control. Test compounds (e.g., compounds of Formula (I) or (II)) were first serially diluted in DMSO then diluted 1:100 with EIDM+10% FBS. The final concentration of DMSO was 0.1% in each well. The cells were incubated for 72 hours at 37° C. and 5% CO2 before assaying with Cell Titer Glo 2.0 reagent.

MYB = experiment: Protein abundance, HiBit-assay system (Promega), MYB; format: cell-based; details: Table 6; HiBiT-modified K562 cells, 24 hours
Text: In some embodiments, a compound of Formula (I) or (II) or a pharmaceutically acceptable salt thereof, e.g., as described herein, modulates the expression of a target protein (e.g., HTT or MYB) in a reference cell or sample. In an embodiment, a compound of Formula (I) or (II) or a pharmaceutically acceptable salt thereof, e.g., as described herein, increases the expression of a target protein (e.g., HTT or MYB) in a reference cell or sample. In an embodiment, a compound of Formula (I) or (II) or a pharmaceutically acceptable salt thereof, e.g., as described herein, decreases the expression of a target protein (e.g., HTT or MYB) in a reference cell or sample. The effect of an exemplary compound of Formula (I) or (II) on protein abundance may be measured using a standard assay for measuring protein abundance, such as the HiBit-assay system (Promega). In this assay, percent response for each respective cell line may be as calculated at each compound concentration as follows: % response=100*(S−PC)/(NC−PC). For the normalized response at each concentration, a four-parameter logistical regression may be fit to the data and the response may be interpolated at the 50% value to determine a concentration for protein abundance at 50% (IC50) an untreated control. In an embodiment, a compound of Formula (I) or (II) or a pharmaceutically acceptable salt thereof, e.g., as described herein, has a protein abundance response less than 100 nM. In an embodiment, a compound of Formula (I) or (II) or a pharmaceutically acceptable salt thereof, e.g., as described herein, has a protein abundance response between 100-1000 nM. In an embodiment, a compound of Formula (I) or (II) or a pharmaceutically acceptable salt thereof, e.g., as described herein, has a protein abundance response greater than 1000 nM. In an embodiment, a compound of Formula (I) or (II) or a pharmaceutically acceptable salt thereof, e.g., as described herein, has a protein abundance response greater than 10 uM. In an embodiment, a compound of Formula (I) or (II) or a pharmaceutically acceptable salt thereof, e.g., as described herein, modulates the protein abundance of a target protein by about 1%, 5%, 10%, 15%, 20%, 25%, 30%, 35%, 40%, 45%, 50%, 55%, 60%, 65%, 70%, 75%, 80%, 85%, 90%, 95%, 99% or more, e.g., compared with a reference compound.

[1] = 24 h, A673 or K562 cells, 24 hours compound treatment, RT-qPCR
[2] = 24 h, A673 or K562 cells, 24 hours compound treatment, RT-qPCR, read-out: MYB CJ (IC50, decrease in canonical junction mRNA)
[3] = Tables 4A/4B, canonical junction qPCR panel, read-out: MYB (IC50, decrease in CJ mRNA, gene panel)

Structure (SMILES)	IC50 (MYB mRNA; [2]) [µM]	IC50 (MYB mRNA; [3]) [µM]	GI50 (K562 cells) [µM]	IC50 (MYB)	AC50 (MYB mRNA; [1]) [µM]	AC50 (MYB mRNA; A673 or K562 cells, 24 hours compound treatment, RT-qPCR) [µM]	IC50 (MYB mRNA; A673 or K562 cells, 24 hours compound treatment, RT-qPCR, read-out: MYB CJ (IC50, decrease in canonical junction mRNA)) [µM]
Cc1cn2cc(NC(=O)c3ccc(N4CCN(C)C(C)C4)c4cc(C)oc34)cc(F)c2n1 (centres unmarked) [Compound 191]	0.1 to 1	0.1 to 1	0.1 to 1	< 0.1 µM and 0.1 to 1 µM	0.1 to 1		
Cc1cn2cc(NC(=O)c3ccc(N4CCN5CCCC5C4)c4cc(C)oc34)cc(F)c2n1 (centres unmarked) [Compound 199]	0.1 to 1	0.1 to 1	0.1 to 1	< 0.1 µM	0.1 to 1		
Cc1cn2cc(NC(=O)c3ccc(N4CCNCC4)c4cn(C)nc34)cc(F)c2n1 [Compound 143, N-{8-fluoro-2-methylimidazo[1,2-a]pyridin-6-yl}-2-methyl-4-(piperazin-1-yl) indazole-7-carboxamide]		< 0.1	0.1 to 1	< 0.1 µM			
Cc1cn2cc(NC(=O)c3ccc(N4CCNC5(CC5)C4)c4cc(C)oc34)cc(F)c2n1 [Compound 194]		0.1 to 1	0.1 to 1	0.1 to 1 µM			
Cc1cn2cc(NC(=O)c3ccc(N4CC5NC5C4)c4cn(C)nc34)cc(F)c2n1 (centres unmarked) [Compound 563, 4-{3,6-diazabicyclo[3.1.0]hexan-3-yl}-N-{8-fluoro-2-methylimidazo[1,2-a]pyridin-6-yl}-2-methylindazole-7-carboxamide]			0.1 to 1	< 0.1 µM		< 0.1	< 0.1
Cc1cn2cc(NC(=O)c3ccc(N4CCN(C)CC4)c4cc(C)oc34)cc(F)c2n1 [Compound 189]	0.1 to 1	0.1 to 1	0.1 to 1	0.1 to 1 µM	0.1 to 1		
Cc1cn2cc(NC(=O)c3ccc(N4CCNCC4)c4cc(C)oc34)cc(F)c2n1 [Compound 142]	0.1 to 1	0.1 to 1	0.1 to 1	< 0.1 µM	0.1 to 1		
Cc1cn2cc(NC(=O)c3ccc(N4CC(C)(C)NC(C)(C)C4)c4cc(C)oc34)cc(F)c2n1 [Compound 195]	0.1 to 1	0.1 to 1	0.1 to 1	1 to 10 µM	1 to 10		
Cc1cn2cc(NC(=O)c3ccc(N4CCNCC4)c4nc(C)oc34)cc(F)c2n1 [Compound 140]		1 to 10	1 to 10	1 to 10 µM			
Cc1cn2cc(NC(=O)c3ccc(N4CCNCC4)c4oc(C)nc34)cc(F)c2n1 [Compound 141]	< 0.1	< 0.1	0.1 to 1	0.1 to 1 µM	< 0.1		
Cc1cn2cc(NC(=O)c3ccc(C4CCNCC4)c4ccoc34)cc(F)c2n1 [Compound 149]	0.1 to 1	0.1 to 1	0.1 to 1	< 0.1 µM	0.1 to 1		
Cc1cn2cc(NC(=O)c3ccc(C4CCNCC4)c4cc(C)oc34)cc(F)c2n1 [Compound 145]	0.1 to 1	0.1 to 1		< 0.1 µM	0.1 to 1		
Cc1cn2cc(NC(=O)c3ccc(N4CCNC(C)(C)C4)c4cc(C)oc34)cc(F)c2n1 [Compound 193]	0.1 to 1	0.1 to 1	0.1 to 1	0.1 to 1 µM	0.1 to 1		
Cc1cn2nc(NC(=O)c3ccc(C4CCNCC4)c4cc(C)oc34)cc(C)c2n1 [Compound 118]		0.1 to 1	0.1 to 1	< 0.1 µM			
Cc1cn2nc(NC(=O)c3ccc(N4CCNCC4)c4cc(C)oc34)cc(C)c2n1 [Compound 148]	1 to 10	1 to 10	1 to 10	1 to 10 µM	1 to 10		
Cc1cn2cc(NC(=O)c3ccc(N4CCC(NC(C)(C)C)CC4)c4cc(C)oc34)cc(F)c2n1 [Compound 197]	1 to 10	1 to 10	0.1 to 1	1 to 10 µM	1 to 10		
CCC1CN(c2ccc(C(=O)Nc3cc(F)c4nc(C)cn4c3)c3oc(C)cc23)CCN1 (centres unmarked) [Compound 192]	0.1 to 1	0.1 to 1	0.1 to 1	0.1 to 1 µM	0.1 to 1		
Cc1cn2nc(NC(=O)c3ccc(C4CCNCC4)c4ccoc34)cc(C)c2n1 [Compound 119]	1 to 10	1 to 10	1 to 10	1 to 10 µM	1 to 10		

More lines, main results first:

IC50 (MYB mRNA; [2]) [µM]	IC50 (MYB mRNA; [3]) [µM]	GI50 (K562 cells) [µM]	IC50 (MYB)	Structure (SMILES)	AC50 (MYB mRNA; [1]) [µM]	AC50 (MYB mRNA; A673 or K562 cells, 24 hours compound treatment, RT-qPCR) [µM]	IC50 (MYB mRNA; A673 or K562 cells, 24 hours compound treatment, RT-qPCR, read-out: MYB CJ (IC50, decrease in canonical junction mRNA)) [µM]
1 to 10		0.1 to 1	1 to 10 µM	CCn1cc2c(N3CC[C@@H](NC)C3)ccc(C(=O)Nc3cc(Cl)c4nc(C)cn4c3)c2n1 [Compound 556, N-{8-chloro-2-methylimidazo[1,2-a]pyridin-6-yl}-2-ethyl-4-[(3R)-3-(methylamino)pyrrolidin-1-yl]indazole-7-carboxamide]	> 10		
0.1 to 1		1 to 10	1 to 10 µM	Cc1cn2cc(NC(=O)c3ccc(N4CC[C@@H](NCc5cnc(Cl)nc5)C4)c4cn(C)nc34)cc(F)c2n1 [Compound 573, 4-[(3R)-3-{[(2-chloropyrimidin-5-yl)methyl]amino}pyrrolidin-1-yl]-N-{8-fluoro-2-methylimidazo[1,2-a]pyridin-6-yl}-2-methylindazole-7-carboxamide]	0.1 to 1		
0.1 to 1		0.1 to 1	0.1 to 1 µM	CCn1cc2c(N3CCNCC3)ccc(C(=O)Nc3cn4cc(C)nc4c(Oc4ccccc4)n3)c2n1 [Compound 566, 2-ethyl-N-{2-methyl-8-phenoxyimidazo[1,2-a]pyrazin-6-yl}-4-(piperazin-1-yl) indazole-7-carboxamide]	0.1 to 1		
	< 0.1	0.1 to 1	< 0.1 µM	Cc1cn2cc(NC(=O)c3ccc(C4CCNCC4)c4cn(C)nc34)cc(F)c2n1 [Compound 208]			
1 to 10		1 to 10	> 10 µM	Cc1cn2cc(NC(=O)c3ccc(N4CC[C@@H](N5CCNCC5)C4)c4cn(C)nc34)cc(F)c2n1 [Compound 562, N-{8-fluoro-2-methylimidazo[1,2-a]pyridin-6-yl}-2-methyl-4-[(3R)-3-(piperazin-1-yl)pyrrolidin-1-yl]indazole-7-carboxamide hydrochloride]	1 to 10		
< 0.1		< 0.1	< 0.1 µM	CCn1cc2c(N3CCC(N[C@H]4C[C@@H](O)C4)CC3)ccc(C(=O)Nc3cc(F)c4nc(C)cn4c3)c2n1 [Compound 559, 2-ethyl-N-{8-fluoro-2-methylimidazo[1,2-a]pyridin-6-yl}-4-(4-{[(1s,3s)-3-hydroxycyclobutyl]amino}piperidin-1-yl) indazole-7-carboxamide]	< 0.1		
< 0.1		< 0.1	< 0.1 µM	CCn1cc2c(N3CCC(N)(CC)CC3)cc(F)c(C(=O)Nc3cc(F)c4nc(C)cn4c3)c2n1 [Compound 557, 4-(4-amino-4-ethylpiperidin-1-yl)-2-ethyl-6-fluoro-N-{8-fluoro-2-methylimidazo[1,2-a]pyridin-6-yl}indazole-7-carboxamide]	< 0.1		
> 10	> 10	0.1 to 1	> 10 µM	Cc1cc2c(N3CCNCC3)ccc(C(=O)Nc3cc(F)c4cn(C)nc4c3)c2o1 [Compound 217]	> 10		
< 0.1		0.1 to 1	< 0.1 µM	CCn1cc2c(N3CCC(NC4CC4)C3)cc(F)c(C(=O)Nc3cc(F)c4nc(C)cn4c3)c2n1 (centres unmarked) [Compound 569, 4-[3-(cyclopropylamino)pyrrolidin-1-yl]-2-ethyl-6-fluoro-N-{8-fluoro-2-methylimidazo[1,2-a]pyridin-6-yl}indazole-7-carboxamide]	< 0.1		

— patent US20250154169A1, “COMPOUNDS AND METHODS FOR MODULATING SPLICING” (REMIX THERAPEUTICS INC., priority 2021, published 2025)
